# From ChEMBL document CHEMBL1146649, “New highly active taxoids from 9 beta-dihydrobaccatin-9,10-acetals. Part 5” (2004)
# Tests used:
# Mus musculus [1] = assay: Maximum rate of body weight loss after intravenous administration of 11.9 mg/kg of compound in mice; assay type: functional
# Mus musculus [2] = assay: Maximum rate of body weight loss after peroral administration of 17.8 mg/kg of compound in mice; assay type: functional; details: route oral
# Mus musculus [3] = assay: Effective dose of intravenously administered compound against B16 melanoma BL6 cells implanted into mice; range is 5.3-11.9; assay type: functional; details: B16, iv
# Mus musculus [4] = assay: Maximum rate of body weight loss after peroral administration of 5.3 mg/kg of compound in mice; assay type: functional; details: route oral
# Mus musculus [5] = assay: Maximum rate of body weight loss after peroral administration of 7.9 mg/kg of compound in mice; assay type: functional; details: route oral
# B16 [6] = assay: Antitumor activity of 11.9 mg/kg of intravenously administered compound against B16 melanoma BL6 cells implanted into mice, value reported is percent compared to control; assay type: functional, Mus musculus; details: route intravenous
# B16 [7] = assay: Antitumor activity of 11.9 mg/kg of perorally administered compound against B16 melanoma BL6 cells implanted into mice, value reported is percent compared to control; assay type: functional, Mus musculus; details: route oral
# B16 [8] = assay: Antitumor activity of 17.8 mg/kg of perorally administered compound against B16 melanoma BL6 cells implanted into mice, value reported is percent compared to control; assay type: functional, Mus musculus; details: route oral
# Mus musculus [9] = assay: Antitumor activity of 5.3 mg/kg of intravenously administered compound against B16 melanoma BL6 cells implanted into mice, value reported is percent compared to control; assay type: functional; details: route intravenous
# Mus musculus [10] = assay: Antitumor activity of 5.3 mg/kg of perorally administered compound against B16 melanoma BL6 cells implanted into mice, value reported is percent compared to control; assay type: functional; details: route oral
# Mus musculus [11] = assay: Antitumor activity of 7.9 mg/kg of intravenously administered compound against B16 melanoma BL6 cells implanted into mice, value reported is percent compared to control; assay type: functional; details: route intravenous
# Mus musculus [12] = assay: Antitumor activity of 7.9 mg/kg of perorally administered compound against B16 melanoma BL6 cells implanted into mice, value reported is percent compared to control; assay type: functional; details: route oral
# Mus musculus [13] = assay: Maximum rate of body weight loss after intravenous administration of 5.3 mg/kg of compound in mice; assay type: functional
# Mus musculus [14] = assay: Maximum rate of body weight loss after intravenous administration of 7.9 mg/kg of compound in mice; assay type: functional
# Mus musculus [15] = assay: Maximum rate of body weight loss after peroral administration of 11.9 mg/kg of compound in mice; assay type: functional; details: route oral
# Mus musculus [16] = assay: Effective dose of perorally administered compound against B16 melanoma BL6 cells implanted into mice; range is 7.9-11.0; assay type: functional; details: B16, po
# Mus musculus [17] = assay: Number of mice died at 11.9 mg/kg of intravenous dose, among the total 6 mice tested; assay type: functional
# Mus musculus [18] = assay: Number of mice died at 11.9 mg/kg of peroral dose, among the total 6 mice tested; assay type: functional; details: route oral
# Mus musculus [19] = assay: Number of mice died at 17.8 mg/kg of intravenous dose among the total 6 mice tested; assay type: functional
# Mus musculus [20] = assay: Number of mice died at 17.8 mg/kg of peroral dose among the total 6 mice tested; assay type: functional; details: route oral
# Mus musculus [21] = assay: Number of mice died at 5.3 mg/kg of intravenous dose of compound among the total 6 mice tested; assay type: functional
# Mus musculus [22] = assay: Number of mice died at 5.3 mg/kg of peroral dose of compound among the total 6 mice tested; assay type: functional; details: route oral
# Mus musculus [23] = assay: Number of mice died at 7.9 mg/kg of intravenous dose of compound among the total 6 mice tested; assay type: functional
# Mus musculus [24] = assay: Number of mice died at 7.9 mg/kg of peroral dose of compound among the total 6 mice tested; assay type: functional; details: route oral
# P388 = assay: Concentration required to inhibit mouse P388 cell line growth by 50% at 72 hr continuous exposure; assay type: functional; details: P388, 72 h
# PC-6 [25] = assay: Concentration required to inhibit human PC-6 cell line growth by 50% at 72 hr continuous exposure; assay type: functional; details: PC-6, 72 h
# PC-6 [26] = assay: Concentration required to inhibit human PC-6/VP1-1 cell line growth by 50% at 72 hr exposure; assay type: functional; details: PC-6, 72 h
# PC-12 = assay: Concentration required to inhibit human PC-12 cell line growth by 50% at 72 hr continuous exposure; assay type: functional; details: PC-12, 72 h
# PC-6 [27] = assay: Concentration required to inhibit human PC-6/VCR29-9 cell line growth by 50% at 72 hr exposure; assay type: functional; details: PC-6, 72 h
# Mus musculus [28] = assay: Effective dose of intravenously administered compound against B16 melanoma BL6 cells implanted into mice; range is 7.8-17.8; assay type: functional; details: B16, iv
# B16 [29] = assay: Effective dose of perorally administered compound against B16 melanoma BL6 cells implanted into mice; assay type: functional; details: Mus musculus, B16, po
# Mus musculus [30] = assay: Effective dose of intravenously administered compound against B16 melanoma BL6 cells implanted into mice; range is 3.5-5.3; assay type: functional; details: B16, iv
# PC-6 [31] = assay: Concentration that inhibited the growth of PC-6/VCR29-9 cells by 50% at 72 hr continuous exposure; assay type: functional; details: Homo sapiens, PC-6, 72 h
compound,measurement,setting,value
CC(=O)O[C@@]12CO[C@@H]1CC[C@@]1(C)[C@@H]3O[C@H](CN(C)C)O[C@@H]3C3=C(C)[C@@H](OC(=O)[C@H](O)[C@@H](NC(=O)OC(C)(C)C)c4cccc(F)n4)C[C@@](O)([C@@H](OCc4ccccc4)[C@@H]12)C3(C)C,BWLmax,Mus musculus [1],12%
same,BWLmax,Mus musculus [2],13.9%
same,ED50,Mus musculus [3],11.9 mg/kg
same,BWLmax,Mus musculus [4],<0%
same,BWLmax,Mus musculus [5],3.8%
same,IR,B16 [6],95.6%
same,IR,B16 [7],97.4%
same,IR,B16 [8],94.8%
same,IR,Mus musculus [9],67.6%
same,IR,Mus musculus [10],42.4%
same,IR,Mus musculus [11],91.5%
same,IR,Mus musculus [12],91.5%
same,BWLmax,Mus musculus [13],2%
same,BWLmax,Mus musculus [14],2.9%
same,BWLmax,Mus musculus [15],12.9%
same,ED50,Mus musculus [16],11 mg/kg
same,Mortality,Mus musculus [17],0
same,Mortality,Mus musculus [18],0
same,Mortality,Mus musculus [19],6
same,Mortality,Mus musculus [20],5
same,Mortality,Mus musculus [21],0
same,Mortality,Mus musculus [22],0
same,Mortality,Mus musculus [23],0
same,Mortality,Mus musculus [24],0
same,GI50,P388,0.67 ng/mL
same,GI50,PC-6 [25],0.38 ng/mL
same,GI50,PC-6 [26],21.3 ng/mL
same,GI50,PC-12,0.62 ng/mL
same,GI50,PC-6 [27],2.58 ng/mL
CC(=O)O[C@@]12CO[C@@H]1CC[C@@]1(C)[C@@H]3O[C@H](CN(C)C)O[C@@H]3C3=C(C)[C@@H](OC(=O)[C@H](O)[C@@H](NC(=O)OC(C)(C)C)c4nccs4)C[C@@](O)([C@@H](OCc4ccccc4)[C@@H]12)C3(C)C,ED50,Mus musculus [28],17.8 mg/kg
same,ED50,B16 [29],11.9 mg/kg
same,GI50,P388,0.25 ng/mL
same,GI50,PC-6 [25],0.27 ng/mL
same,GI50,PC-6 [26],39.1 ng/mL
same,GI50,PC-12,0.35 ng/mL
same,GI50,PC-6 [27],2.81 ng/mL
CC(=O)O[C@@]12CO[C@@H]1CC[C@@]1(C)[C@@H]3O[C@H](CN4CCOCC4)O[C@@H]3C3=C(C)[C@@H](OC(=O)[C@H](O)[C@@H](NC(=O)OC(C)(C)C)c4cscn4)C[C@@](O)([C@@H](OCc4ccccc4)[C@@H]12)C3(C)C,ED50,Mus musculus [30],5.3 mg/kg
same,ED50,B16 [29],7.9 mg/kg
same,GI50,P388,0.03 ng/mL
same,GI50,PC-6 [25],0.65 ng/mL
same,GI50,PC-6 [31],1.02 ng/mL
same,GI50,PC-6 [26],9.13 ng/mL
same,GI50,PC-12,0.08 ng/mL
